Test results reported in ChEMBL document CHEMBL1201862, “PubChem BioAssay data set” (2004).
The source made the active and inactive calls.

What was measured:
[1] = target: Peroxisome proliferator-activated receptor gamma/Nuclear receptor coactivator 2 (Homo sapiens, UniProt P37231); format: functional;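 also: agonist potency for raising coactivator recruitment to the receptor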
[2] = target: Peroxisome proliferator-activated receptor gamma/Nuclear receptor coactivator 1 (Homo sapiens, UniProt P37231); format: functional;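 also: agonist potency as compounds enhance coactivator SRC-1 recruitment to PPARgamma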
Aminopeptidase N = target: T1, Aminopeptidase N (Plasmodium falciparum FcB1/Columbia, UniProt O96935); experiment: P. falciparum M1AAP inhibitors, biochemical, fluorogenic H-Leu-NHMec substrate, 1536-well (AID 1445); design: species or system Plasmodium falciparum 3D7, 3D7
T1 sequence (O96935 whole entry): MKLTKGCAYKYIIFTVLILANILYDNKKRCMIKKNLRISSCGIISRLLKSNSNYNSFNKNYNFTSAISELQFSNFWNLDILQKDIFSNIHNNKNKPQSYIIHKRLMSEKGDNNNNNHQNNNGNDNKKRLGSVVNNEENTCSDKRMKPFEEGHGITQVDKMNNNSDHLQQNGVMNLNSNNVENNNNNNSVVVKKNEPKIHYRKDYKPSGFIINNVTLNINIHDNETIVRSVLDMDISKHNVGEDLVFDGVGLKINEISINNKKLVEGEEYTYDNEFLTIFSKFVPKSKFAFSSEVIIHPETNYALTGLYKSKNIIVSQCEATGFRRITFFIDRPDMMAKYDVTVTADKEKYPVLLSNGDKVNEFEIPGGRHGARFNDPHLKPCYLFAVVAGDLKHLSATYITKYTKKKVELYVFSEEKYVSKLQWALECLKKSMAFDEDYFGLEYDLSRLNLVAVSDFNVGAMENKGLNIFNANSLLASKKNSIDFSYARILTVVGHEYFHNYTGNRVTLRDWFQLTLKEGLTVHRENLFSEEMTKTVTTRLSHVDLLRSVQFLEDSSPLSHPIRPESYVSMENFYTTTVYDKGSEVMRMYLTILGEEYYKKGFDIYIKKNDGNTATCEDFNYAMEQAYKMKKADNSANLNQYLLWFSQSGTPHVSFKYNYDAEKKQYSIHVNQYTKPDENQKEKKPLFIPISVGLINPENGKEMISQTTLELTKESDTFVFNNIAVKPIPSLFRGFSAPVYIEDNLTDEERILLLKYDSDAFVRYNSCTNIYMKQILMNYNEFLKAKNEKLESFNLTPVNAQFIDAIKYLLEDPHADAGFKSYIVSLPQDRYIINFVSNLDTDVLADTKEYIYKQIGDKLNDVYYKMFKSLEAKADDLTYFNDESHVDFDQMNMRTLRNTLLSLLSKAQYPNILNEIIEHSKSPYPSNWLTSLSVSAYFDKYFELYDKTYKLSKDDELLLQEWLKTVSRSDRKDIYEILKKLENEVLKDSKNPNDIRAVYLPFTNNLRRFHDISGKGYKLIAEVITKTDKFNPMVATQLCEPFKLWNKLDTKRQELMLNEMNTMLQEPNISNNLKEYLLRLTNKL

[3] = target: Peroxisome proliferator-activated receptor gamma/Nuclear receptor coactivator 3 (Homo sapiens, UniProt P37231); format: functional;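 also: agonist potency for raising coactivator recruitment to the receptor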
[4] = target: T2, Kappa-type opioid receptor (Homo sapiens, UniProt P41145); format: functional
Beta-galactosidase [5] = target: T3, Beta-galactosidase (Escherichia coli, UniProt Q8VNN2); format: functional
[6] = target: T2, Kappa-type opioid receptor; format: functional; remark: listed apart in the source
[7] = target: DNA dC->dU-editing enzyme APOBEC-3A (Homo sapiens, UniProt P31941); experiment: Dose Response confirmation of small molecule APOBEC3A DNA Deaminase Inhibitors via a fluorescence-based single-stranded DNA deaminase assay. [Related pubchem assays (depositor defined):AID493011, AID493024]; format: functional
[8] = target: DNA dC->dU-editing enzyme APOBEC-3G (Homo sapiens, UniProt Q9HC16); format: functional;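 also: Dose-response counterscreen measuring inhibition of APOBEC3G DNA deaminase activity, run while confirming APOBEC3A inhibitors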
[9] = target: T4, Polyadenylate-binding protein 1 (Homo sapiens, UniProt P11940); experiment: PABP1 MLLE–PAM2 interaction inhibitors, dose response, miRNA deadenylation inhibitor project, biochemical, fluorescence polarization, Cy5-PAM2 peptide, secondary (AID 602260); format: functional; settings: read-out: IC50_Mean
[10] = target: T4, Polyadenylate-binding protein 1; experiment: PABP1 MLLE–PAM2 binding inhibitor potency, dose response, biochemical, fluorescence polarization, FITC-PAM2 peptide (AID 602259); format: functional; settings: read-out: IC50_Mean
[11] = target: E3 ubiquitin-protein ligase Mdm2 (Homo sapiens, UniProt Q00987); experiment: enhancers of MDM2-luciferase reporter signal, concentration-effect titration, project on inhibitors of MDM2 ubiquitin ligase, cellular assay, luminescent readout, 384-well plate format (AID 1394); format: functional;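 also: MDM2 E3 inhibitors raise luminescence so EC50 is for signal enhancement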
[12] = target: Induced myeloid leukemia cell differentiation protein Mcl-1 (Homo sapiens, UniProt Q07820); format: functional
Vero = Vero cell cytotoxicity, cytotoxicity control for flavivirus capping enzyme inhibitors (AID 588742); format: functional; settings: Chlorocebus sabaeus
[13] = target: T5, Apoptotic protease-activating factor 1 (Homo sapiens, UniProt O14727); format: functional
T5 sequence (O14727 whole entry): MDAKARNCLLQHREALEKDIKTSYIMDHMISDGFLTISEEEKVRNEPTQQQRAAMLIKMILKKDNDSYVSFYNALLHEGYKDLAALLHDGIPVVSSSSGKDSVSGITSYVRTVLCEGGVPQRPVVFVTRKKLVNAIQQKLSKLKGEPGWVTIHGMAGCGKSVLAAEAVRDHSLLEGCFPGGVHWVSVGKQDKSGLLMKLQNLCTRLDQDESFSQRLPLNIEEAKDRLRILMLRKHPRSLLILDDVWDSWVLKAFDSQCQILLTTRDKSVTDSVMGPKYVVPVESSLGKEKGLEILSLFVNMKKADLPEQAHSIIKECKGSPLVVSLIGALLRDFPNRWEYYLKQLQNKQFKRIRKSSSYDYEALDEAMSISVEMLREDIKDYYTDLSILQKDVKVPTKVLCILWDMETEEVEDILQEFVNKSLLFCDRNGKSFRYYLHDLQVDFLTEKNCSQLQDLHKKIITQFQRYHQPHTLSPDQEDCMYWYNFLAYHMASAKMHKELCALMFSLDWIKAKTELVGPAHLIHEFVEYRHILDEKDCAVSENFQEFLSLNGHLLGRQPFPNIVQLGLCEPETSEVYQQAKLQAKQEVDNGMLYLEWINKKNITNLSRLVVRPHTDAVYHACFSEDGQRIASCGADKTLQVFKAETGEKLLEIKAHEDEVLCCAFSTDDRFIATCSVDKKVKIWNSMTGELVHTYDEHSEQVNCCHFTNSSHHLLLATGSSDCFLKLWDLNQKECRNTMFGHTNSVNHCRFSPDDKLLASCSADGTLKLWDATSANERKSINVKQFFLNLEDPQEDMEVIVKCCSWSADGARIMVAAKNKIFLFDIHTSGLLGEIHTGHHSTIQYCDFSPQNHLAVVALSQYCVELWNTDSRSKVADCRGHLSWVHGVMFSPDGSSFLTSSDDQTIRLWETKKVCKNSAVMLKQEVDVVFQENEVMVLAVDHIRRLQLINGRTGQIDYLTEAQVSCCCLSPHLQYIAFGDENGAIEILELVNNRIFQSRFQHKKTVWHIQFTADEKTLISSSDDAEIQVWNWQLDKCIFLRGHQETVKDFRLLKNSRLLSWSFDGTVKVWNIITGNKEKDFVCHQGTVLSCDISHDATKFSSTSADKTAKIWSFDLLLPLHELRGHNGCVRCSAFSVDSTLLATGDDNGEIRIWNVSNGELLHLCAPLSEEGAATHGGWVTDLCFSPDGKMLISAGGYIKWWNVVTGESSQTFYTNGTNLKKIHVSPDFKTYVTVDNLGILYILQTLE

[14] = THP-1 cell cytotoxicity, dose response, cytotoxicity control for Vif-APOBEC3G degradation inhibitor project, THP-1 cells (AID 1117359); format: functional; settings: Human immunodeficiency virus 1, THP-1
[15] = target: Glyceraldehyde-3-phosphate dehydrogenase (Homo sapiens, UniProt P04406)
[16] = tested on: Streptococcus sp. 'group A'; experiment: growth inhibition of control SK(-) GAS strain, dose response, counter-screen for streptokinase expression inhibitor project, luminescence, kanamycin, BacTiterGlo, confirmation (AID 1900); format: functional, organism-based
Beta-galactosidase [17] = target: T3, Beta-galactosidase; experiment: PubChem AID 485352; format: functional
[18] = target: T6, Type-1 angiotensin II receptor (Homo sapiens, UniProt P30556); experiment: AT1 receptor antagonists, dose response, selectivity assay for APJ receptor antagonist project, cell-based, uHTS hits (AID 463214); format: functional;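 also: antagonist potency against angiotensin II stimulated AT1 response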
T6 sequence (P30556 whole entry): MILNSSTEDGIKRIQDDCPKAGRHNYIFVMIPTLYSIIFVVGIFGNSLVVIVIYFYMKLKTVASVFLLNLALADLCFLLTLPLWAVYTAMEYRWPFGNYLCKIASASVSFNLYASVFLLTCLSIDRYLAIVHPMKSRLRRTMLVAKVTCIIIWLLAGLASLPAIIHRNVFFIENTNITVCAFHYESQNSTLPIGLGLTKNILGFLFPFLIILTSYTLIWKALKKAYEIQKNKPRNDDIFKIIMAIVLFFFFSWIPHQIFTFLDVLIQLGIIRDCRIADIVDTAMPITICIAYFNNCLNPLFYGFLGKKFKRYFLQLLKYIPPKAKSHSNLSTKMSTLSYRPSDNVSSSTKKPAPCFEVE

Streptococcus = experiment: Group A Streptococcus viability loss, dose response, counter-screen for streptokinase expression inhibitor project, luminescence, BacTiterGlo (AID 1915); format: functional, organism-based;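 also: potency for reduction of bacterial viability or growth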
[19] = A cytotoxicity screen of small molecule inhibitors of the PhoP region in Salmonella typhi identified in the primary screen. [Related pubchem assays: 1850, 1864, 1985 ]; format: functional
cells = format: functional
Estrogen receptor beta = Estrogen receptor beta (Homo sapiens, UniProt Q92731);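 also: recombinant ER-beta bound to coactivator SRC1 peptide in presence of estradiol agonist; inhibitors block coactivator peptide binding and lower the FRET signal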

Chain of Peroxisome proliferator-activated receptor gamma/Nuclear receptor coactivator 2 (P37231 whole entry): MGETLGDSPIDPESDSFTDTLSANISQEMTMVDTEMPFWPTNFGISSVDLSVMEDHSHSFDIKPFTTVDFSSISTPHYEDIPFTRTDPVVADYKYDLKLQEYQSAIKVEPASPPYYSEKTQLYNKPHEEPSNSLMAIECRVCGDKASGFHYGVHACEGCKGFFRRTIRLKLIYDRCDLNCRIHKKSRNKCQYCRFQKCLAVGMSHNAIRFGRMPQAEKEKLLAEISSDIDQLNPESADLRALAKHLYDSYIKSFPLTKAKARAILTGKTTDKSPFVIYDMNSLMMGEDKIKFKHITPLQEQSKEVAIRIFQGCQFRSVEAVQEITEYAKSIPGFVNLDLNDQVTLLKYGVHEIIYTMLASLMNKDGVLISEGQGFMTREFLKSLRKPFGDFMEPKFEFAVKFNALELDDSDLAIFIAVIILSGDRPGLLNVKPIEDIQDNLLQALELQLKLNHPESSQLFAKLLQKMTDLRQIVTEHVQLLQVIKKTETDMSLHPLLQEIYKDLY
Chain of Peroxisome proliferator-activated receptor gamma/Nuclear receptor coactivator 2 (Q15596 whole entry, further chain): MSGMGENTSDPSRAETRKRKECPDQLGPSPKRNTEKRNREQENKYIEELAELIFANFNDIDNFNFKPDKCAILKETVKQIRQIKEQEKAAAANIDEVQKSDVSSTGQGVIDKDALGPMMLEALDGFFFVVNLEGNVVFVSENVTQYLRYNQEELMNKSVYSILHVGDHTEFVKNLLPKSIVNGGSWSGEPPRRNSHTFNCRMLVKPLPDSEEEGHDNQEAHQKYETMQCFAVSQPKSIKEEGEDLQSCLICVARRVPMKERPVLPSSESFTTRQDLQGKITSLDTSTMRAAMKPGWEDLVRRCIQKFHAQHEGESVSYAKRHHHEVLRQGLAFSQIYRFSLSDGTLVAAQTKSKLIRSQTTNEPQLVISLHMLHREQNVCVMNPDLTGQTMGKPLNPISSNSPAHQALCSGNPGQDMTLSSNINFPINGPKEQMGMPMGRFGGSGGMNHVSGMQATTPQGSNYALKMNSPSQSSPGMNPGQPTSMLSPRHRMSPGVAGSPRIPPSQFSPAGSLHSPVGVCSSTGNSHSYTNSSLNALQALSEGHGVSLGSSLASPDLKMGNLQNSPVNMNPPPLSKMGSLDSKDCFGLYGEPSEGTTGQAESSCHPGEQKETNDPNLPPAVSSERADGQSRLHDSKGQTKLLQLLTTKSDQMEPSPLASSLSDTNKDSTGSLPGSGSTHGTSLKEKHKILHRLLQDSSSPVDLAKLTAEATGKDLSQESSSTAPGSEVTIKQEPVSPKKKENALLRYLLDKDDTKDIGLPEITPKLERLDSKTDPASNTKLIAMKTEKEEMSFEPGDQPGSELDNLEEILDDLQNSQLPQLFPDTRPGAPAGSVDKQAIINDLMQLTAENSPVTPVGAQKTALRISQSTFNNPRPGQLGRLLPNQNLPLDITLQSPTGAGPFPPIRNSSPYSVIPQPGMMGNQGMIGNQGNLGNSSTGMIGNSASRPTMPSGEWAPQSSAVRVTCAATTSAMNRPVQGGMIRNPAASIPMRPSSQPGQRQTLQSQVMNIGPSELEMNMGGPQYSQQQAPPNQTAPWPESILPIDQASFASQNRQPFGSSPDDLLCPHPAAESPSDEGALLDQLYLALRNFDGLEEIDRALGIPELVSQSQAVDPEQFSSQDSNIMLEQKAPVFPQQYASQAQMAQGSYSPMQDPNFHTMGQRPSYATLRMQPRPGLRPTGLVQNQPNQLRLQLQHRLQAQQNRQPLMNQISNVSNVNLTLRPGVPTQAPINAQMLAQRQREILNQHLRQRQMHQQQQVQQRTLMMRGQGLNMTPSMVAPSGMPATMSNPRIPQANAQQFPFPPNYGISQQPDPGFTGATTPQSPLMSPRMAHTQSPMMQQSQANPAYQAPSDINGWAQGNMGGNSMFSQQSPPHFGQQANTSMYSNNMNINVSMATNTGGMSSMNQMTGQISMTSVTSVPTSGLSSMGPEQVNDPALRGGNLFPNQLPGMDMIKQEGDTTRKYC
Chain of Peroxisome proliferator-activated receptor gamma/Nuclear receptor coactivator 3 (P37231 whole entry): as the sequence (P37231 whole entry) above
Chain of Peroxisome proliferator-activated receptor gamma/Nuclear receptor coactivator 3 (Q9Y6Q9 whole entry, further chain): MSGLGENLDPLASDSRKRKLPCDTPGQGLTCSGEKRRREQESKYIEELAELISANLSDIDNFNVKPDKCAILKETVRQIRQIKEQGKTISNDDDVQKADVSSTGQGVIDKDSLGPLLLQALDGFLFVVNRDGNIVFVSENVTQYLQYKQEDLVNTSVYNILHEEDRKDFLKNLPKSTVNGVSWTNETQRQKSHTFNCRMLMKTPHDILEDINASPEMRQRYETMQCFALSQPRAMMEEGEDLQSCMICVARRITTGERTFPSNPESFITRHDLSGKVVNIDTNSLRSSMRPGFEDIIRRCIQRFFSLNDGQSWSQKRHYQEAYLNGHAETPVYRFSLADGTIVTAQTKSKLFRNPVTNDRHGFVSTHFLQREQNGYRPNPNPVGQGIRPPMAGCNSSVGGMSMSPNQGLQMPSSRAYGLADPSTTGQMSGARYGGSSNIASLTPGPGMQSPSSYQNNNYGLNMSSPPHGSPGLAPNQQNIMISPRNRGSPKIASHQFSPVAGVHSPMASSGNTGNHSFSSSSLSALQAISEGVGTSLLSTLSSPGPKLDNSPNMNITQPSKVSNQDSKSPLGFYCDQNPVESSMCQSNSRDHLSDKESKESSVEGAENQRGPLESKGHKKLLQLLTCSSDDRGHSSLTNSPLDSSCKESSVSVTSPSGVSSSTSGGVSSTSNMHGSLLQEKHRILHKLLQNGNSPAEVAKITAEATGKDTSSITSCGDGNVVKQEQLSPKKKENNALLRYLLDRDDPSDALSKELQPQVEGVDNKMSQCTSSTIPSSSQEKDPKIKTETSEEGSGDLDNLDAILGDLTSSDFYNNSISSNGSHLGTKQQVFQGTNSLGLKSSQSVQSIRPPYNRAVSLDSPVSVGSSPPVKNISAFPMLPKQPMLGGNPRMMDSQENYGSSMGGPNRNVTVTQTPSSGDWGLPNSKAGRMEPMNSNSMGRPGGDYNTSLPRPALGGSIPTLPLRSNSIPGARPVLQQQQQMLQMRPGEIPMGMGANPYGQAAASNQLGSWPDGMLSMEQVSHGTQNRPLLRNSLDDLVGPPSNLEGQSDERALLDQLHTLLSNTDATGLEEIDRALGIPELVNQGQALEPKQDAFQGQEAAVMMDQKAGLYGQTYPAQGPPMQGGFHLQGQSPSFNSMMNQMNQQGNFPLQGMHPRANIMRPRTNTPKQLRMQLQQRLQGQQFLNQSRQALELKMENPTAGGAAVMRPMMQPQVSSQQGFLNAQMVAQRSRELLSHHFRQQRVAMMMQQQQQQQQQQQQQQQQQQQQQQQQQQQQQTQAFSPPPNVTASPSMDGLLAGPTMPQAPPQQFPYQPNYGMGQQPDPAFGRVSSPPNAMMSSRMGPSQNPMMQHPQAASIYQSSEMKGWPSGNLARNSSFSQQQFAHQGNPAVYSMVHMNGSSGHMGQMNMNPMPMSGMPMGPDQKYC
Chain of DNA dC->dU-editing enzyme APOBEC-3A (P31941 whole entry): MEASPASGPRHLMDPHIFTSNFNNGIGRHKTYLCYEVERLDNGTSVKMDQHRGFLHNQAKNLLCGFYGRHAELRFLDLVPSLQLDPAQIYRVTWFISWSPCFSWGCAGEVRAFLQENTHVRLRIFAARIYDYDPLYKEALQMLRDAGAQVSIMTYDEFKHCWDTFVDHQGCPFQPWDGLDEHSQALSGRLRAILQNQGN
Chain of DNA dC->dU-editing enzyme APOBEC-3G (Q9HC16 whole entry): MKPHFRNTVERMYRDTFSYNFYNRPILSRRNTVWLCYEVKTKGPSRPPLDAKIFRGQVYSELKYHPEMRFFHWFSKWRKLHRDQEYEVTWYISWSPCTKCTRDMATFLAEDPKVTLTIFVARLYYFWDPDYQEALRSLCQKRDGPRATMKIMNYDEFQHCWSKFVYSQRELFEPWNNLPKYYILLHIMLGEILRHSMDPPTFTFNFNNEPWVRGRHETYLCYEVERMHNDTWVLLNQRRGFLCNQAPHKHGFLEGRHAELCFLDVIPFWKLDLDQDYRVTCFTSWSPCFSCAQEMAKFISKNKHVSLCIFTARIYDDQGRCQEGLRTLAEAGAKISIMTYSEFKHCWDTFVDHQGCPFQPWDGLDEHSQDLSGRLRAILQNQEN
T2 sequence (P41145 whole entry): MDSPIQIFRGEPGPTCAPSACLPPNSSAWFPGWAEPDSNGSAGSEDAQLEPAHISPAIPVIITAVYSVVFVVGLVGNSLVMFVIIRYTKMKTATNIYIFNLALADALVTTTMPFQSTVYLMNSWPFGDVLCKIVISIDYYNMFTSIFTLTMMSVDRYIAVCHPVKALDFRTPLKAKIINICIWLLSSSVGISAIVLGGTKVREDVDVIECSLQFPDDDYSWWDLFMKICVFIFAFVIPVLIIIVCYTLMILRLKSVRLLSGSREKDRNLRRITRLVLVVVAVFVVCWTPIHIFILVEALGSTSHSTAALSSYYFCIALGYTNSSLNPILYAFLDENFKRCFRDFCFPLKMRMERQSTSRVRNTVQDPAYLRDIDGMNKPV

SMILES: Cc1nnc(O)nc1N/N=C/c1cccs1
- EC50 [1]: > 79.4 µM (not active)
- EC50 [2]: > 79.4 µM (not active)
- IC50 (Aminopeptidase N): 25.8 µM (active)
- EC50 [3]: > 79.4 µM (not active)

SMILES: CCOC(=O)c1nn(-c2ccc(Cl)cc2)c2nc(-c3ccc(C)cc3)c(C#N)c(=O)n12
- EC50 [1]: > 79.4 µM (not active)
- EC50 [2]: > 79.4 µM (not active)
- EC50 [3]: > 79.4 µM (not active)

SMILES: CSC(=S)N/N=C(\C)c1ccccc1
- IC50 [4]: 8.37 µM (active)
- EC50 (Beta-galactosidase [5]): > 31.5 µM (inactive)
- IC50 [6]: > 32 µM

SMILES: COCCN(CC(=O)Nc1cccc(C)c1C)C(=O)CN1C(=O)NC2(CCCCC2)C1=O
- IC50 [7]: 11.1 µM (active)
- IC50 [8]: 12.2 µM (active)

SMILES: CCOc1ccc(-c2csc(NNC3=NCCCCC3)n2)cc1
- EC50 [1]: > 79.4 µM (not active)
- EC50 [2]: > 79.4 µM (not active)
- EC50 [3]: > 79.4 µM (not active)
- IC50 [9]: > 66 µM (inactive)
- IC50 [10]: > 66 µM (inactive)

SMILES: Cc1ccc2c(c1)c1ccc3c(c1n2C)C(=O)C=CC3=O
- EC50 [11]: 958 µM (active)
- IC50 [12]: 1.51 µM (active)
- CC50 (Vero): 27.3 µM (active)
- IC50 [13]: 51.8 µM (active)
- IC50 [9]: > 66 µM (inactive)
- IC50 [10]: > 66 µM (inactive)
- CC50 [14]: 12.5 µM (active)

SMILES: O=C(CSc1ncnc2nc[nH]c12)Nc1ccccc1C(F)(F)F
- IC50 [7]: 50.8 µM (active)
- IC50 [8]: 93.7 µM (active)

SMILES: Cc1oc(C(=O)O)cc1COc1ccc2c(oc(=O)c3ccccc32)c1C
- IC50 [15]: > 100 µM (not active)

SMILES: CCCOc1cccc(-c2cc(C(=O)N/N=C/c3ccccn3)c3ccccc3n2)c1
- EC50 [16]: 1.95 µM (active)
- EC50 (Beta-galactosidase [17]): > 40 µM (inactive)
- IC50 [18]: 5.9 µM (active)
- IC50 [4]: 8.44 µM (active)
- EC50 (Beta-galactosidase [5]): > 31.5 µM (inactive)
- IC50 [6]: > 32 µM
- EC50 (Streptococcus): 2.21 µM (active)

SMILES: COc1ccc(CCNC(=O)CN(C2CCCCC2)S(C)(=O)=O)cc1OC
- IC50 [7]: 4.1 µM (active)
- IC50 [8]: 5.58 µM (active)

SMILES: N=C(NOS(=O)(=O)c1ccc(Cl)cc1)c1cccnc1
- EC50 [19]: > 50 µM (active)

SMILES: CC(C)=CCN1CCN(Cc2nc(-c3ccccc3)cs2)CC1CCO (stereo not drawn)
- EC50 [19]: > 50 µM (active)

SMILES: CS(=O)(=O)N(CCc1ccccc1)CC(=O)Nc1ccc2c(c1)OCO2
- EC50 [19]: > 50 µM (active)

SMILES: c1ccc(CSc2ccc(-c3cccs3)nn2)nc1
- EC50 [19]: > 50 µM (active)

SMILES: CCOC(=O)c1ccc(COC(=O)c2cc3ccccc3oc2=O)o1
- IC50 (cells): > 50 µM (active)

SMILES: CCC(=O)Nc1cc(C(=O)O)ccc1S(=O)(=O)c1ccc(C)cc1
- IC50 [7]: 16.4 µM (active)
- IC50 [8]: 42.2 µM (active)

SMILES: O=C1NN(c2cccc(Cl)c2)C(=O)/C1=C\c1ccc(-c2cccc(C(=O)O)c2)o1
- IC50 [15]: > 100 µM (not active)

SMILES: CSCCC(NC(=O)c1ccco1)C(=O)OCC(=O)Nc1sccc1C#N (stereo not drawn)
- IC50 (Estrogen receptor beta): 16.5 µM (active)

SMILES: CCOc1nc(-c2ccccc2)ccc1-c1noc(-c2cccs2)n1
- EC50 [1]: 21.2 µM (not active)
- EC50 [2]: 25.8 µM (not active)
- EC50 [3]: 29.6 µM (not active)
